For seven molecules, IC50 and inhibition results are on record in patent publication US20160272645A1, “Heterocyclic Compounds and Methods of Use” (MEDIVATION TECHNOLOGIES, INC., priority 2013, published 2016).

Holding throughout (type): biochemical
One assay has as its target T1, BTK (Homo sapiens, UniProt Q06187).
T1 construct: purchased Reaction Biology Corporation
Briefly: BTK kinase profiling, HotSpot radiometric assay (Reaction Biology). Particulars: for inhibition at 0.1 µM: compound 0.1 μM, read-out: BTK @ 0.1 μM (% Inh); for inhibition at 0.1 µM / inhibition at 1 µM / inhibition at 0.01 µM: ATP 10 μM; for inhibition at 1 µM: compound 1 μM, read-out: BTK @ 1 μM (% Inh); for inhibition at 0.01 µM: compound 0.01 μM, read-out: BTK @ 0.01 μM (% Inh). The method, then:
Compounds of the invention were profiled in a 10 dose IC50 panel against BTK and PI3Kδ, both provided by Reaction Biology Corporation.
(§1) BTK assay: In vitro profiling protein kinases was performed using the “HotSpot” assay platform. Briefly, specific kinase/substrate pairs along with required cofactors were prepared in reaction buffer. Compounds were prepared as 10 mM stock solutions in DMSO. Compounds were delivered into the reaction, followed 15-20 minutes later by addition of a mixture of ATP (Sigma, St. Louis Mo.) and ^33P ATP (Perkin Elmer, Waltham Mass.) to a final concentration of 10 μM. Reactions were carried out at RT for 120 min, followed by spotting of the reactions onto P81 ion exchange filter paper (Whatman Inc., Piscataway, N.J.). Unbound phosphate was removed by extensive washing of filters in 0.75% Phosphoric acid. […] ICso values and curve fits were obtained using Prism (GraphPad Software). Buffer Conditions: 20 mM Hepes (pH 7.5), 10 mM MgCl2, 1 mM EGTA, 0.02% Brij35, 0.02 mg/mL BSA, 0.1 mM Na3VO4, 2 mM DTT, 1% DMSO.

The next assay addresses T2, TEC (Homo sapiens, UniProt P42680).
T2 construct: purchased Reaction Biology Corporation
T2 sequence (P42680 1-631): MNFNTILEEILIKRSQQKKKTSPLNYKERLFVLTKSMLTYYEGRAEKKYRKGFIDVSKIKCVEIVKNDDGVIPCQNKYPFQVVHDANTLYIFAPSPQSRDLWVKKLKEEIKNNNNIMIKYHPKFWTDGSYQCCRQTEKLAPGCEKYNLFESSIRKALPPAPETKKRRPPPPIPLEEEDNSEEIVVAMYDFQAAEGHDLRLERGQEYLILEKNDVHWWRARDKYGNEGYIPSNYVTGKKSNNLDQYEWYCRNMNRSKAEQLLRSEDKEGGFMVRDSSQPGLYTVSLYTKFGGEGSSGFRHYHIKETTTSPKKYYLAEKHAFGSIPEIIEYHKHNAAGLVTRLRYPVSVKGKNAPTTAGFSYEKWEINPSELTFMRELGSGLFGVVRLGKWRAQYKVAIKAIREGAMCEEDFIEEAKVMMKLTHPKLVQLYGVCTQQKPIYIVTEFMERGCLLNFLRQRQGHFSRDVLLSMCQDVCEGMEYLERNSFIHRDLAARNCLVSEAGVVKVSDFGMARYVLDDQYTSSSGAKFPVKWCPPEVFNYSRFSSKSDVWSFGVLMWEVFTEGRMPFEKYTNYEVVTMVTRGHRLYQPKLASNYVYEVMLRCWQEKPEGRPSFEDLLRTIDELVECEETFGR
Briefly: TEC kinase profiling (BTK protocol). The conditions noted are these: compound 0.3 μM; read-out: TEC @ 0.3 μM (% Inh). The protocol: as §1
(§2) Compounds of the invention were profiled in a 10 dose IC50 panel against BMX/ETK, ITK and TEC kinases, provided by Reaction Biology Corporation, applied to the BTK protocol provided in Example B1.

For another assay, the target named is T3, BMX/ETK (Homo sapiens, UniProt P51813).
T3 construct: purchased Reaction Biology Corporation
T3 sequence (P51813 1-675): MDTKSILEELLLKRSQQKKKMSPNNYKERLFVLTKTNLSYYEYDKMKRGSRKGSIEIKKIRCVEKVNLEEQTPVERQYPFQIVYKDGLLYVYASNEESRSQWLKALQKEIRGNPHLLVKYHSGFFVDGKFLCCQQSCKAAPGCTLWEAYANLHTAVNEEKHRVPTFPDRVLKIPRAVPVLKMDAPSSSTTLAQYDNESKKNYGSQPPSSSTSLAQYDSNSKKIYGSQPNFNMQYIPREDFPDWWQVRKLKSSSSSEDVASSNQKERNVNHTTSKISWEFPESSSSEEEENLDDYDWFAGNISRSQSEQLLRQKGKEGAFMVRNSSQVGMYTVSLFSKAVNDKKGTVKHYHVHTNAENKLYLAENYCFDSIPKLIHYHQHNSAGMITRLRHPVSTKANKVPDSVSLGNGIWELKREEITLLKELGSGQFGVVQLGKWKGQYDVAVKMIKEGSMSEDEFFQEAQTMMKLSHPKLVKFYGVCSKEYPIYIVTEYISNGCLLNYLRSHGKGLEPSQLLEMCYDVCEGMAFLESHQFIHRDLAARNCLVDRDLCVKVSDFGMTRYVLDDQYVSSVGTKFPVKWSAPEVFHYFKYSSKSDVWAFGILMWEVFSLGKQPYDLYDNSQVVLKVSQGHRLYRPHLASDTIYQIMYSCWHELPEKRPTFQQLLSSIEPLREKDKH
Briefly: BMX/ETK kinase profiling (BTK protocol). Particulars: compound 0.3 μM; read-out: BMX/ETK @ 0.3 μM (% Inh). The method, then:
as §1, §2

A further assay concerns the target T4, ITK (Homo sapiens, UniProt Q08881).
T4 construct: purchased Reaction Biology Corporation
T4 sequence (Q08881 1-620): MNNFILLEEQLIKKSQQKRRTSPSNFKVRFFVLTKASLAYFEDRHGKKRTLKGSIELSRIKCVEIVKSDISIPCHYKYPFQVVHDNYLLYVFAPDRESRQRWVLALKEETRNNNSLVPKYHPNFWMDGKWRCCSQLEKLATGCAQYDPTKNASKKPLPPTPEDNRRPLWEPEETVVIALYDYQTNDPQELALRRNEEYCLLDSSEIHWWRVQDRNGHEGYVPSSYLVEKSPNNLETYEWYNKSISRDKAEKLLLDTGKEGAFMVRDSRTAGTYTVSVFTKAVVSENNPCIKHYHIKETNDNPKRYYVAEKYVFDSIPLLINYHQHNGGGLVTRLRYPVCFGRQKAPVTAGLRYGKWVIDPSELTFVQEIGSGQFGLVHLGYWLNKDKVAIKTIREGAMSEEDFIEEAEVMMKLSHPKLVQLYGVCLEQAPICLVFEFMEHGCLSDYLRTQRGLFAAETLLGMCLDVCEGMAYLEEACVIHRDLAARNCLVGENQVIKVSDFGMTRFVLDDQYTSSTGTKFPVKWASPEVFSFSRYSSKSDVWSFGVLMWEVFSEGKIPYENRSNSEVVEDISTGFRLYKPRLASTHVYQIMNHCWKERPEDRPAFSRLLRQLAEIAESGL
Briefly: ITK kinase profiling (BTK protocol). Particulars: compound 0.3 μM; read-out: ITK @ 0.3 μM (% Inh). The protocol:
as §1, §2

For another assay, the target named is T5, PI3Kδ (Homo sapiens, UniProt O00329).
T5 construct: purchased Reaction Biology Corporation
Briefly: PI3Kδ kinase profiling, HTRF PIP3 displacement assay (Reaction Biology). Particulars: ATP 10 μM; for inhibition at 0.1 µM: compound 0.1 μM, read-out: PI3Kδ @ 0.1 μM (% Inh); for inhibition at 0.01 µM: compound 0.01 μM, read-out: PI3Kδ @ 0.01 μM (% Inh). For orientation: Time-resolved FRET reads energy transfer from a long-lived donor to a nearby acceptor.

T5 sequence (O00329 whole entry): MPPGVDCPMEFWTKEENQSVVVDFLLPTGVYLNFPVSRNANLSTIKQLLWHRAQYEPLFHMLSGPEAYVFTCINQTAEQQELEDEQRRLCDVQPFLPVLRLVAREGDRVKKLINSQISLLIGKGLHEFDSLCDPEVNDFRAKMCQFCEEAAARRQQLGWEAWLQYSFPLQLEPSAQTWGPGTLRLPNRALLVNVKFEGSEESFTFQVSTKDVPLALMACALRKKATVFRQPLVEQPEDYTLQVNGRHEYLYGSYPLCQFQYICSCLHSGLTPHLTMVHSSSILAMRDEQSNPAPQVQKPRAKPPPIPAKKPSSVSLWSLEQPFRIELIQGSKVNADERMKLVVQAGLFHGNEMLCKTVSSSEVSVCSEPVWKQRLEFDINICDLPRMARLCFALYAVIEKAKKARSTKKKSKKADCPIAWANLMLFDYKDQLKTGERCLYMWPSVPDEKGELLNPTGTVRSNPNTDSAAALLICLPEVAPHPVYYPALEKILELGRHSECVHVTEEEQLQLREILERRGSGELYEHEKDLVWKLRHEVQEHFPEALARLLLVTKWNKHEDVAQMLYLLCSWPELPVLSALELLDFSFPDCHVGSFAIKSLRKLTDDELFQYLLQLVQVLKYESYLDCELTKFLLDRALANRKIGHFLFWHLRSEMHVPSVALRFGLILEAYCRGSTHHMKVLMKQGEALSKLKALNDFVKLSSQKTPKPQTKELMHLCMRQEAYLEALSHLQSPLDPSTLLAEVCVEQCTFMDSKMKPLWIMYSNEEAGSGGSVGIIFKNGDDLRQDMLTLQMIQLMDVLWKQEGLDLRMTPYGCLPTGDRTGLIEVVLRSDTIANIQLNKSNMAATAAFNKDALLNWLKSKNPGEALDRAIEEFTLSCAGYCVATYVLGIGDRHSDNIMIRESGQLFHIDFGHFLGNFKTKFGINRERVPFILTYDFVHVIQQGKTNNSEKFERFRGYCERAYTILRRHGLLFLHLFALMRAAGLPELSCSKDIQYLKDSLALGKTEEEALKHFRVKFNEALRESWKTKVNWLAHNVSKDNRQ
T5 sequence (P27986 whole entry partner): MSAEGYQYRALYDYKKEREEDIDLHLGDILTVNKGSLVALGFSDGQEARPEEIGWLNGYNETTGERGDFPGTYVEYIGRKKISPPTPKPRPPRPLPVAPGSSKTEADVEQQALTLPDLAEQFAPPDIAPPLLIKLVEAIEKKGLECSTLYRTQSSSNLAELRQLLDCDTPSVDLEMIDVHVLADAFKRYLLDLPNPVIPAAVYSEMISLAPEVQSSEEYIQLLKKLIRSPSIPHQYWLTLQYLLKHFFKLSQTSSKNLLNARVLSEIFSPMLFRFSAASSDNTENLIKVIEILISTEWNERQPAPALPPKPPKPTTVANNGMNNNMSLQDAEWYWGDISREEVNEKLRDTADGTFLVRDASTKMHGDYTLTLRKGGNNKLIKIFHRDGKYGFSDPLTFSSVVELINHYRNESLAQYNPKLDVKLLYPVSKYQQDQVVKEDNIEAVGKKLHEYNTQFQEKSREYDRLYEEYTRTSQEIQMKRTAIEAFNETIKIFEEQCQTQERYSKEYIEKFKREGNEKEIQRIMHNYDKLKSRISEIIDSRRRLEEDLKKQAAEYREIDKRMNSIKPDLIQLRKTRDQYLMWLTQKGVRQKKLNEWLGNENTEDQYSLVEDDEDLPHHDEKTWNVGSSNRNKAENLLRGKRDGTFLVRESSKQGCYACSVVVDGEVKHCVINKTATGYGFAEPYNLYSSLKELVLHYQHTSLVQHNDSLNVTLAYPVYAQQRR
T1 sequence (Q06187 whole entry): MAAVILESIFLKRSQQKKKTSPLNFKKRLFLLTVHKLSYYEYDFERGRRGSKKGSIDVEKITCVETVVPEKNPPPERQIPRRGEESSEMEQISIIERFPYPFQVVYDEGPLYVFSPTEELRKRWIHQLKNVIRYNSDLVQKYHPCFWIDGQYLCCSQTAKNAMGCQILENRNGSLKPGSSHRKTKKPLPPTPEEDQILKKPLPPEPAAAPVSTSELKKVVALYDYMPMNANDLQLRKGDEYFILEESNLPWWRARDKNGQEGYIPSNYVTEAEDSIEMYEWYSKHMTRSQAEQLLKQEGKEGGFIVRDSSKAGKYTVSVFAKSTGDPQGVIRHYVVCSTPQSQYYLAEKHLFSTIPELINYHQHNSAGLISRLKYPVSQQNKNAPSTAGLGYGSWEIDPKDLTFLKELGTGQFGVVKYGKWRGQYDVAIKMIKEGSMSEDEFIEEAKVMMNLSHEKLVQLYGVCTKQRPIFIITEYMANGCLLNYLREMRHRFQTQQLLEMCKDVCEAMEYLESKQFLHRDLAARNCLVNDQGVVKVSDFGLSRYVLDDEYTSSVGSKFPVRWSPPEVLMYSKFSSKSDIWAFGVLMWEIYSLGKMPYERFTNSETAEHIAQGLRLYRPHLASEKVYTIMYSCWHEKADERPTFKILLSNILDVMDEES

As usually defined, the IC50 is the point on the concentration scale where inhibition reaches its midpoint. A higher IC50 goes with a need for much substance. As for `Nc1ncnc2c1c(-c1cc(O)cc(F)c1)nn2CCNc1ccccc1` [Compound 1, 3-(4-amino-1-(2-(phenylamino)ethyl)-1H-pyrazolo [3,4-d]pyrimidin-3-yl)-5-fluorophenol], the half-inhibitory concentration (IC50) at BTK was determined as 167 nM. Moreover, the inhibition at 0.3 µM at TEC is -1.13%; on BMX/ETK, 43.5%; at ITK, 0.06%.

With `C=CC(=O)N(CCn1nc(-c2cc(O)cc(F)c2)c2c(N)ncnc21)c1ccccc1` [Compound 2, N-(2-(4-amino-3-(3-fluoro-5-hydroxyphenyl)-1H-pyrazolo[3,4-d]pyrimidin-1-yl)ethyl)-N-phenylacrylamide], the inhibition at 0.1 µM on PI3Kδ was 39.1%; on BTK it was 94.1%. For the same molecule, the half-inhibitory concentration (IC50) against BTK stood at 3.9 nM. The inhibition at 0.3 µM came out at 72.6% at TEC, 98.5% at BMX/ETK and 50.7% on ITK.

As for `C=CC(=O)N(CCn1nc(-c2cc(O)cc(F)c2)c2c(N)ncnc21)Cc1ccccc1` [Compound 5, N-(2-(4-amino-3-(3-fluoro-5-hydroxyphenyl)-1H-pyrazolo[3,4-d]pyrimidin-1-yl)ethyl)-N-benzylacrylamide], the inhibition at 0.1 µM is 70.3% on PI3Kδ and 94% at BTK. The same molecule came in with an IC50 at BTK of 3.7 nM. The values for the inhibition at 0.3 µM at TEC, at BMX/ETK and at ITK were 48.8%, 92.5% and 10.2%, respectively.

Regarding `C=CC(=O)N(CCn1nc(-c2cc(O)cc(F)c2)c2c(N)ncnc21)Cc1ccc(F)cc1` [Compound 10, N-{2-[4-amino-3-(3-fluoro-5-hydroxyphenyl)-1H-pyrazolo [3,4-d]pyrimidin-1-yl]ethyl}-N-[(4-fluorophenyl)methyl]prop-2-enamide], the inhibition at 0.1 µM at PI3Kδ came to 67.2%; on BTK it was 95.4%. The molecule also came in with an IC50 against BTK of 3 nM. Moreover, the inhibition at 1 µM at BTK turned out to be 98.3%. The inhibition at 0.3 µM at TEC was 66.1%; at BMX/ETK, 93%; on ITK, 30.5%.

As for `C=CC(=O)N(CCn1nc(-c2cc(O)cc(F)c2)c2c(N)ncnc21)Cc1ccccc1F` [Compound 11, N-[2-[4-amino-3-(3-fluoro-5-hydroxy-phenyl)pyrazolo[3,4-d]pyrimidin-1-yl]ethyl]-N-[(2-fluorophenyl)methyl]prop-2-enamide], the inhibition at 0.1 µM on PI3Kδ was 54.2%; on BTK it was 93.8%. The molecule also registered an IC50 on BTK of 7.4 nM. For the same molecule, the inhibition at 1 µM on BTK turned out to be 97.2%. For the same molecule, the values for the inhibition at 0.3 µM on TEC, at BMX/ETK and on ITK were 68.7%, 93.5% and 34.7%, respectively.

As to `C=CC(=O)N(CCn1nc(-c2cc(O)cc(F)c2)c2c(N)ncnc21)Cc1ccc(Cl)cc1` [Compound 12, N-{2-[4-amino-3-(3-fluoro-5-hydroxyphenyl)-1H-pyrazolo[3,4-d]pyrimidin-1-yl]ethyl}-N-[(4-chlorophenyl)methyl]prop-2-enamide], the inhibition at 0.01 µM amounted to 37.7% at PI3Kδ and 62.8% on BTK. In addition, the inhibition at 0.1 µM was 66.7% on PI3Kδ and 94.4% at BTK. The same molecule yielded an IC50 against BTK of 0.4 nM. Moreover, the values for the inhibition at 0.3 µM on TEC, on BMX/ETK and on ITK were 71.6%, 94.2% and 62.5%, respectively.

Consider `C=CC(=O)N(CCn1nc(-c2cc(O)c(F)c(F)c2)c2c(N)ncnc21)Cc1ccc(Cl)cc1` [Compound 16, N-{2-[4-amino-3-(3,4-difluoro-5-hydroxyphenyl)-1H-pyrazolo[3,4-d]pyrimidin-1-yl]ethyl}-N-[(4-chlorophenyl)methyl]prop-2-enamide], for which the inhibition at 0.01 µM on PI3Kδ stood at 48.3%; on BTK it was 63.4%. In addition, the inhibition at 0.1 µM turned out to be 73% on PI3Kδ and 93.8% at BTK. Also, the midpoint of inhibition on BTK, the IC50, lay at 2.7 nM. For the same molecule, the inhibition at 0.3 µM was found to be 75% on TEC, 97.2% at BMX/ETK and 8.93% on ITK.
